Data reported in ChEMBL document CHEMBL4308869, “Towards lead compounds as anti-cancer agents via new phaeosphaeride A derivatives” (Bioorg Med Chem Lett, 2019).

Columns and labels:
[1] = tested on: HCT-116; assay: Cytotoxicity against human HCT116 cells after 72 hrs by MTT assay; type: functional, cell-based; conditions: HCT-116, 72 h
[2] = tested on: PC-3; assay: Cytotoxicity against human PC3 cells after 72 hrs by MTT assay; type: functional, cell-based; conditions: PC-3, 72 h
[3] = tested on: MCF7; assay: Cytotoxicity against human MCF7 cells after 72 hrs by MTT assay; type: functional, cell-based; conditions: MCF7, 72 h
[4] = tested on: A549; assay: Cytotoxicity against human A549 cells after 72 hrs by MTT assay; type: functional, cell-based; conditions: A549, 72 h
[5] = tested on: HEF; assay: Cytotoxicity against HEF after 72 hrs by MTT assay; type: cell-based; conditions: Homo sapiens
[6] = tested on: PC-3; assay: Potency index, ratio of PPA IC50 to test compound IC50 for human PC3 cells; type: functional
[7] = tested on: K562; assay: Cytotoxicity against human K562 cells after 72 hrs by MTT assay; type: functional, cell-based; conditions: K562, 72 h
[8] = tested on: NCI-H929; assay: Cytotoxicity against human NCI-H929 cells after 72 hrs by MTT assay; type: functional, cell-based; conditions: NCI-H929, 72 h
[9] = tested on: Jurkat; assay: Cytotoxicity against human Jurkat cells after 72 hrs by MTT assay; type: functional, cell-based
[10] = tested on: THP-1; assay: Cytotoxicity against human THP1 cells after 72 hrs by MTT assay; type: functional, cell-based; conditions: THP-1, 72 h
[11] = tested on: RPMI-8226; assay: Cytotoxicity against human RPMI8226 cells after 72 hrs by MTT assay; type: functional, cell-based; conditions: RPMI-8226, 72 h
[12] = tested on: HCT-116; assay: Potency index, ratio of PPA IC50 to test compound IC50 for human HCT116 cells; type: functional
[13] = Therapeutic index, ratio of IC50 for HEF to IC50 for human HCT116 cells; type: toxicity; conditions: HEF cells versus HCT116 cells, read-out: Ratio IC50
[14] = tested on: NCI-H929; assay: Potency index, ratio of PPA IC50 to test compound IC50 for human NCI-H929 cells; type: functional
[15] = tested on: A549; assay: Potency index, ratio of PPA IC50 to test compound IC50 for human A549 cells; type: functional
[16] = Therapeutic index, ratio of IC50 for HEF to IC50 for human NCI-H929 cells; type: toxicity; conditions: HEF cells versus NCI-H929 cells, read-out: Ratio IC50
[17] = tested on: NCI-H929; assay: Potency index, ratio of etoposide IC50 to test compound IC50 for human NCI-H929 cells; type: functional
[18] = tested on: A549; assay: Potency index, ratio of etoposide IC50 to test compound IC50 for human A549 cells; type: functional

| SMILES | IC50 [1] [µM] | IC50 [2] [µM] | IC50 [3] [µM] | IC50 [4] [µM] | IC50 [5] [µM] | Ratio IC50 [6] | IC50 [7] [µM] | IC50 [8] [µM] | IC50 [9] [µM] | IC50 [10] [µM] | IC50 [11] [µM] | Ratio IC50 [12] | selectivity ratio [13] | Ratio IC50 [14] | Ratio IC50 [15] | selectivity ratio [16] | Ratio IC50 [17] | Ratio IC50 [18] |
| --- | --- | --- | --- | --- | --- | --- | --- | --- | --- | --- | --- | --- | --- | --- | --- | --- | --- | --- |
| C=C1C2=C(C(=O)N1OC)[C@@H](F)[C@@](C)(O)[C@H](CCCCC)O2 | 31 | 12 | 37 | 42 | 37 | 3 | 18 | 3.9 | 15 | 19 | 16 | – | – | – | – | – | – | – |
| C=C1C2=C(C(=O)N1OC)[C@H](OC(=O)CCl)[C@@](C)(O)[C@H](CCCCC)O2 | 2.4 | 2.4 | 17 | 20 | 9.1 | – | 7 | 3.3 | 9.6 | 11 | 9.7 | 20 | 3.8 | – | – | – | – | – |
| C=C1C2=C(C(=O)N1OC)[C@H](O)[C@@](C)(O)[C@H](CCCCC)O2 | 44 | 32 | 20 | 41 | 19 | – | 20 | 6.5 | 10 | 19 | 9.3 | – | – | – | – | – | – | – |
| C=C1C2=C(C(=O)N1OC)[C@H](OC(=O)CSc1nc3ccccc3[nH]1)[C@@](C)(O)[C@H](CCCCC)O2 | 8.2 | 6.4 | 16 | 19 | 11 | – | 9.3 | 2 | 8.9 | 5.3 | 4.3 | – | – | – | – | – | – | – |
| C=C1C2=C(C(=O)N1OC)[C@H](OC(=O)CCCCCl)[C@@](C)(O)[C@H](CCCCC)O2 | 11 | 9.2 | 5.4 | 12 | 11 | – | 8.5 | 2.5 | 4.2 | 4.6 | 4.3 | – | – | – | – | – | – | – |
| COc1cc([C@@H]2c3cc4c(cc3[C@@H](O[C@@H]3O[C@@H]5CO[C@@H](C)O[C@H]5[C@H](O)[C@H]3O)[C@H]3COC(=O)[C@H]23)OCO4)cc(OC)c1O [ETOPOSIDE] | 22 | 2.7 | 9.6 | 100 | > 100 | – | 9.4 | 0.9 | 1.4 | 1 | 4.8 | – | – | – | – | – | – | – |
| C=C1C2=C(C(=O)N1OC)[C@H](OC(=O)CSc1nc3ccccc3o1)[C@@](C)(O)[C@H](CCCCC)O2 | 4.9 | 5.8 | 3.9 | 20 | 9.3 | – | 4.5 | 3 | 2.6 | 2.3 | 5.1 | – | – | – | – | – | – | – |
| C=C1C2=C(C(=O)N1OC)[C@H](OC(=O)CSc1nc3ccccc3s1)[C@@](C)(O)[C@H](CCCCC)O2 | 4.7 | 5 | 6.3 | 5.9 | 11 | – | 4.3 | 0.59 | 2.3 | 1.6 | 2 | – | – | 11 | 7 | 18.6 | 1.5 | 16 |
